In patent US6225350A, “Butyrate prodrugs derived from lactic acid” (Vertex Pharmaceuticals, Inc., priority 1999, dated 2001):
One block for each molecule: values may come before it.

Columns and labels:
[1] = rhesus monkey, in vivo
Method: The efficacy of compound IIIc administered in conjunction with hydroxyurea was tested on six anemic rhesus monkeys divided into three groups of two each. Each group was studied in two phases, as shown below. Fetal hemoglobin cells (F cells), Hemoglobin F level in total Hemoglobin (%Hb F) and %y globin chain levels were monitored before and after each of the two phases. %F cells were measured according to the protocol described in Betke et al, Blut., 4, pp. 241-9 (1958). %Hb F and %y globin chain synthesis were measured using High Performance Liquid Chromatography (HPLC) according to the protocol described in Huisman, J. Chromagtogr., 418, pp. 277 (1987).

Hemoglobin F = experiment: Efficacy study in anemic rhesus monkeys: %Hb F by HPLC; assay type: in vivo
y globin chain = experiment: Efficacy study in anemic rhesus monkeys: %y globin chain by HPLC; assay type: in vivo
[2] = tested on: Fetal hemoglobin cells (F cells); experiment: Efficacy study in anemic rhesus monkeys: %F cells; assay type: in vivo; details: for %F cell count: 8-10% before Phase I
Erythroleukemic Cells = details: cited from earlier work
leukemia = details: cited from earlier work
[3] = in vivo; cited from earlier work
[4] = tested on: colorectal carcinoma cell lines; details: cited from earlier work
pancreatic cancer cells = details: cited from earlier work
[5] = tested on: retinoblastoma cell lines; details: Human Y-79 retinoblastoma cell line; cited from earlier work
[6] = Group I (hydroxyurea in Phase I, hydroxyurea + compound IIIc in Phase II)

SMILES: NC(=O)NO [Hydroxyurea]
- levels of ALT prior to or during the phases [1]: no detectable difference
- levels of the triglycerides prior to or during the phases [1]: no detectable difference
- %Hb F, change (Hemoglobin F; [6]): measurable increase
- %y-globin chain level, change (y globin chain; [6]): measurable increase
- %F cell count ([2]; Animal 1, group I, end of Phase I (hydroxyurea 50 mg/kg/day, 5 weeks)): 25%

- levels of the triglycerides prior to or during the phases [1]: no detectable difference
SMILES: CCCC(=O)O[C@@H](C)C(=O)OCC [Compound IIIc]
- levels of ALT prior to or during the phases [1]: no detectable difference
- HBf level, change (Hemoglobin F; Groups II and III): no measurable change
- Y-globin chain level, change (y globin chain; Groups II and III): no measurable change
- %F cell count ([2]; Animal 2, group II, end of Phase I (compound IIIc 1 g/kg/day, 5 weeks)): 15%
- %F cell count ([2]; Animal 2, group II, end of Phase II (compound IIIc 1 g/kg/TID, 5 weeks)): 22%
- %F cells, change ([2]; Groups II and III): small but significant increase

SMILES: CCCC(=O)O [butyric acid]
- cell differentiation in vitro (Erythroleukemic Cells): induces cell differentiation
- effects in leukemia patients (leukemia): promising effects in leukemia patients

SMILES: CCCC(=O)OCOC(=O)C(C)(C)C [AN-9]
- metabolites / toxic effects [3]: elicit metabolites that may produce formaldehyde in vivo, leading to toxic effects in patients

SMILES: CCCC(=O)[O-].[Na+] [Sodium butyrate]
- apoptosis in colorectal carcinoma cell lines [4]: induce apoptosis
- antigen expression in pancreatic cancer cells (pancreatic cancer cells): modify antigen expression
- apoptosis in retinoblastoma cell lines [5]: induce apoptosis
